# Laboratory results from patent US20090186838A1, “Amphotericin Derivatives” (Eidgenössische Technische Hochschule Zürich, priority 2006, published 2009).
# “And” between values parts separate entries of the source, which are not always exact repeats. Equal values may be shown once. Read-outs that look alike come from different tables or passages of the source.
# Experiments:
# [1] = system: Saccharomyces cerevisiae wild type BY4741; test: MIC determination in Saccharomyces cerevisiae wild type BY4741; assay type: cell-based; conditions: for MIC: read-out: MIC
# Procedure: (§1) In Vitro Antifungal Activity. MIC values for various strains were determined in accordance with the standard protocol from the National Committee of Clinical Laboratory Standards but using YEPD liquid medium instead of RPMI-1640 medium (National Committee of Clinical Laboratory Standards (Reference Method for Broth Dilution Antifungal Susceptibility Testing of Yeast, M27-A2, Approved Standard-Second Edition, Volume 22, Number 15, 1995). AmB was used as a reference. The strains were cultivated overnight in 5 mL YEPD liquid medium at 30 to 37° C. (30° C. for the strain BY4741; 37° C. for the strain DSY1764) with constant shaking. The saturated cultures were diluted to an ODB600 of 0.1 (3×10P^7 cells/mL). Using 24 wells plate, each well was prepared by adding 1% (12 μL) of DMSO solution of the tested polyene macrolide with 1% (12 μL) yeast cells solution and completed with YEPD (1.176 mL). The plates were sealed with Parafilm and then incubated for 18 to 36 hours at 30 to 37° C. (18 hours at 30° C. for the strain BY4741; 36 hours at 37° C. for the strain DSY1764). The optical density was read at 600 nm using 1.5 mL cuvettes. The MIC value was defined as the drug concentration needed to inhibit growth, less than 5% compared to a drug-free culture.
# MIC values of various polyene macrolides of the invention in Saccharomyces cerevisiae wild type BY4741, a derivative of S288C, (with AmB as a reference) were determined as described hereinabove.
# Based on the remarkable performance observed with the Diamine-AmB conjugate similar modifications of the aminosugar moiety were made on other polyene macrolides, such as for example Nystatin (1b) and Pimaricin (1c). The antifungal activity of these nystatin and pimaricin conjugates bearing two aminopropyl side chains was measured using Saccharomyces cerevisiae wild type BY4741.
# [2] = system: DSY-294 C. albican CI; test: MIC determination in Candida strain DSY-294; assay type: cell-based, Candida albicans
# Procedure: as §1
# (§2) MIC values of the polyene macrolides 3, 9 and 10 (Diamine-AmB and its ester and diamide derivative, respectively) in various Candida strains including an AmB-resistant strain C. albicans (DSY1764, with the genotype erg3AΔ::hisG/erg3BΔ::hisG erg11Δ::hisG/erg11Δ::hisG-URA3-hisG) were determined.
# [3] = system: DSY-296 C. albican CI; test: MIC determination in Candida strain DSY-296; assay type: cell-based, Candida albicans
# Procedure: as §1, §2
# [4] = system: DSY-562 C. glabrata CI; test: MIC determination in Candida strain DSY-562; assay type: cell-based
# Procedure: as §1, §2
# [5] = system: DSY-565 C. glabrata CI; test: MIC determination in Candida strain DSY-565; assay type: cell-based
# Procedure: as §1, §2
# [6] = system: CAF2-1 C. albican wt; test: MIC determination in Candida strain CAF2-1; assay type: cell-based, Candida albicans
# Procedure: as §1, §2
# [7] = system: DSY-654 C. albican mutant cdr1/2; test: MIC determination in Candida strain DSY-654; assay type: cell-based, Candida albicans
# Procedure: as §1, §2
# [8] = system: DSY-1751 C. albican mutant erg3; test: MIC determination in Candida strain DSY-1751; assay type: cell-based, Candida albicans
# Procedure: as §1, §2
# [9] = system: DSY-1764 C. albican mutant erg3/11 (AmB-resistant strain); test: MIC determination in AmB-resistant Candida strain DSY-1764; assay type: cell-based, Candida albicans
# Procedure: as §1, §2
# [10] = system: human erythrocytes; test: Hemolytic assay (EH50); assay type: cell-based; conditions: for EH50: concentration that led to 50% hemolysis of human erythrocytes, one hour at 37° C.
# Procedure: Hemolytic Assay. The hemotoxicity of the polyene macrolide derivatives of the invention was determined by measuring the toxicity towards human erythrocytes (EH50 value) using an established assay (Kinsky, S. C. et al., Biochem. Biophys. Res. Comm. 1962, 9, 503). Human blood, anticoagulated with citrate or EDTA, was centrifuged (2000×g) at 4° C. for 10 minutes. The pellets were washed three times with PBS buffer (pH 7.2 with 2 g/L glucose) and then diluted to a concentration of 4% (4×10^8 cells/mL). All experiments were done in triplo and the total volume for the hemolysis tubes was 1.4 ml. The solutions were prepared by adding 1% (14 μL) of DMSO solution of the tested compound with […] of PBS buffer and completed with 750 μL of 4% erythrocytes. After one hour incubation at 37° C., the samples were centrifuged (1500×g) at 4° C. for 5 min and the absorbance of the supernatant was measured at 560 nm. The concentration that led to 50% hemolysis (EH50) was intrapolated graphically. The value for the 100% hemolysis was obtained by the treatment with 100 μM of AmB.
# The toxicity of AmB (1a) and the polyene macrolides 3, 9 and 10 towards human erythrocytes was examined using the above described hemolysis assay (Table 3).
# [11] = Solubility assay; assay type: physicochemical; conditions: DMSO stock added to PBS buffer solution pH 7.2, precipitation point by light scattering at 600 nm
# Procedure: Solubility assay. The solubility assay was performed according to Lipinski, C. A. et al Advances Drug Delivery Reviews 2001, 46, 3-26. Typically, a compound of the invention was dissolved in DMSO at a concentration of 10 μg/μl. The so obtained solution was added in […] at 1 min intervals to 2.5 ml PBS buffer solution pH 7.2. These additions correspond to solubility increments of 5 μg/ml to a top value of 65 μg/ml. A total of 14 additions were made and each time increased UV absorbance from light scattering was measured at 600 nm. The precipitation point was calculated from a bilinear curve fit to the Absorbance (y axis) versus μl of DMSO (x axis) plot.
# The solubility of the polyene macrolides of the invention in water was tested following the above described protocol. Clearly, all conjugates were more soluble in water then AmB.
# [12] = K+ efflux assay, ergosterol containing vesicles; conditions: lower concentration, 0.1 μM (FIG. 3a,c,e,g)
# Procedure: (§3) FIG. 3. K^+ efflux from vesicles (LUVET100) prepared from […] (POPC) (solid line) or POPC with sterols (dotted line) for ergosterol and (broken line) for cholesterol caused by AmB (1a) (FIGS. 3a,b) and AmB diamine 3 (FIG. 3c,d), AmB diamine ester 9 (FIG. 3e,f) and AmB diamine amide 10 (FIG. 3g,h), added in DMSO to a suspension of vesicles to give final concentrations of 0.1 μM (FIG. 3a,c,e,g) and 1.0 μM (FIG. 3b,d,f,h).
# K+ efflux assay. The K^+ efflux measurements were made following a previously described procedure (Zumbuehl, A. et al., Angew. Chem. Int. Ed. 2004, 43, 5181-5185; Zumbuehl, A. et al., Org. Lett. 2004, 6, 3683-3686). The appropriate liposome suspensions were prepared using POPC, cholesterol and ergosterol. Then the liposomes were sized by extrusion through two 400 nm, 200 nm, and finally 100 nm pore size membrane. The resultant “100 nm” unilamellar liposomes were dialyzed against 600 mL of 150 mM NaCl, 5 mM HEPES (pH 7.4) buffer. After, the suspension was diluted with 150 mM NaCl, 5 mM HEPES (pH 7.4) buffer to 1 mM overall lipid concentration (phospholipids+sterols). For each efflux measurement 10 mL of this liposome suspension was placed in a small beaker. Potentiometric measurements were performed with a 16-channel electrode monitor in magnetically stirred solutions at ambient temperature. The reference electrode was a Metrohm double junction Ag/AgCl reference electrode with 3 M KCl as reference electrolyte and 1 M LiOAc as bridge electrolyte. […] The resulting reading (taken after 0.5 h) was used to quantify the 100% K+-release.
# As described hereinbefore differential interaction between ergosterol found in fungal membranes and cholesterol in mammalian cells is considered the basis for the selectivity of AmB (1a) as an antifungal agent. The preferential stabilization of ion channel formation in the membrane by ergosterol ultimately results in electrolyte leakage which can be conveniently measured by K^+ efflux from sterol containing vesicles. […]
# [13] = K+ efflux assay, cholesterol containing vesicles; conditions: lower concentration, 0.1 μM (FIG. 3a,c,e,g)
# Procedure: as §3
# K+ efflux assay. The K^+ efflux measurements were made following a previously described procedure (Zumbuehl, A. et al., Angew. Chem. Int. Ed. 2004, 43, 5181-5185; Zumbuehl, A. et al., Org. Lett. 2004, 6, 3683-3686). The appropriate liposome suspensions were prepared using POPC, cholesterol and ergosterol. Then the liposomes were sized by extrusion through two 400 nm, 200 nm, and finally 100 nm pore size membrane. The resultant “100 nm” unilamellar liposomes were dialyzed against 600 mL of 150 mM NaCl, 5 mM HEPES (pH 7.4) buffer. After, the suspension was diluted with 150 mM NaCl, 5 mM HEPES (pH 7.4) buffer to 1 mM overall lipid concentration (phospholipids+sterols). For each efflux measurement 10 mL of this liposome suspension was placed in a small beaker. Potentiometric measurements were performed with a 16-channel electrode monitor in magnetically stirred solutions at ambient temperature. The reference electrode was a Metrohm double junction Ag/AgCl reference electrode with 3 M KCl as reference electrolyte and 1 M LiOAc as bridge electrolyte. After recording the amphotericin-induced potassium efflux, liposomes were lysed by adding sodium cholate (172 mg). The resulting reading (taken after 0.5 h) was used to quantify the 100% K+-release.
# As described hereinbefore differential interaction between ergosterol found in fungal membranes and cholesterol in mammalian cells is considered the basis for the selectivity of AmB (1a) as an antifungal agent. The preferential stabilization of ion channel formation in the membrane by ergosterol ultimately results in electrolyte leakage which can be conveniently measured by K^+ efflux from sterol containing vesicles. To assess the interaction of the polyene macrolide derivatives of the invention with sterols, derivatives 3, 9 and 10 were examined in their ability to lead to K^+ efflux from large unilamellar vesicles (LUV) prepared from POPC (1-palmitoyl-2-oleoyl-sn-glycero-3-phosphocholine) admixed with sterols, mimicking conditions in natural biomembranes (FIG. 3). At high concentration (FIG. 3b,d,f,h), all compounds rapidly induce complete K^+ efflux from vesicles containing ergosterol (dotted line). […] This differentiation between ergosterol and cholesterol is consistent with the observation of reduced hemotoxicity of 3, 9 and 10.
# [14] = Saccharomyces cerevisiae wild type BY4741, YEPD liquid medium, 18 hours at 30° C.
Structure (SMILES),"MIC [1, 14]",EH50 [10] [µM],MIC ([4]; Nakaseomyces glabratus) [µM],MIC ([5]; Nakaseomyces glabratus) [µM],MIC ([6]; Candida albicans) [µM],"MIC ([9]; Candida albicans, 36 h) [µM]",MIC ([8]; Candida albicans) [µM],other results
"C[C@@H]1[C@H](O)[C@@H](C)/C=C/C=C/C=C/C=C/C=C/C=C/C=C/[C@H](O[C@@H]2O[C@H](C)[C@@H](O)[C@H](N)[C@@H]2O)C[C@@H]2O[C@](O)(C[C@@H](O)C[C@@H](O)[C@H](O)CC[C@@H](O)C[C@@H](O)CC(=O)O[C@H]1C)C[C@H](O)[C@H]2C(=O)O [AmB, Amphotericin B, reference compound]",0.3 µM,4.0,–,–,–,–,–,"MIC ([1]; Table 3, strain not given, values as in Table 1 (S. cerevisiae BY4741)): 0.30 µM; MIC [2]: 0.40 µM; MIC ([3]; DSY-296 C. albican CI): 0.40 µM; MIC [4]: 0.50 µM; MIC ([5]; DSY-565 C. glabrata CI): 0.50 µM; MIC [6]: 0.30 µM; MIC ([7]; DSY-654 C. albican mutant cdr1/2): 0.50 µM; MIC ([8]; DSY-1751 C. albican mutant erg3): 0.30 µM; MIC ([9]; DSY-1764 C. albican mutant erg3/11, AmB-resistant, 36 hours at 37° C.): 50 µM; Solubility in water [11]: 10 µg/mL"
"C[C@@H]1[C@H](O)[C@@H](C)/C=C/C=C/C=C/C=C/C=C/C=C/C=C/[C@H](O[C@@H]2O[C@H](C)[C@@H](O)[C@H](N(CCCN)CCCN)[C@@H]2O)C[C@@H]2O[C@](O)(C[C@@H](O)C[C@@H](O)[C@H](O)CC[C@@H](O)C[C@@H](O)CC(=O)O[C@H]1C)C[C@H](O)[C@H]2C(=O)O [compound 3, N,N-Di-(3-aminopropyl)-AmB]",0.02 µM and 0.020 µM,10,0.2,0.2,0.1,1,–,"times more active than AmB (MIC) ([1]; Saccharomyces cerevisiae wild type BY4741, relative to AmB): 15 times; MIC ([1]; Saccharomyces cerevisiae, Table 3, strain not given, values as in Table 1 (S. cerevisiae BY4741)): 0.02 µM; MIC ([2]; Candida albicans): 0.2 µM; times less toxic than AmB (EH50) ([10]; human erythrocytes, relative to AmB (1a)): 2.5 times; K+ efflux with ergosterol containing vesicles [12]: observed exclusively with the ergosterol containing vesicles; K+ efflux with cholesterol containing vesicles [13]: indistinguishable from background; solubility ([11]; PBS buffer, pH 7.2, aqueous buffer, kinetic from dmso stock, read-out: Solubility in water): 12 µg/mL"
"C[C@@H]1[C@H](O)[C@@H](C)/C=C/C=C/C=C/C=C/C=C/C=C/C=C/[C@H](O[C@@H]2O[C@H](C)[C@@H](O)[C@H](N(CCCN)CCCN)[C@@H]2O)CC2O[C@](O)(C[C@@H](O)C[C@@H](O)[C@H](O)CC[C@@H](O)C[C@@H](O)CC(=O)O[C@H]1C)C[C@H](O)[C@H]2C(=O)NCCCN(C)C [compound 11, 16-(N′-(3-Dimethylaminopropyl)carboxamide)-N,N-di-(3-aminopropyl)-AmB]",0.4 µM,–,0.3,0.3,0.5,1,1,MIC ([3]; Candida albicans): 0.3 µM
"C[C@@H]1[C@H](O)[C@@H](C)/C=C/C=C/C=C/C=C/C=C/C=C/C=C/[C@H](O[C@@H]2O[C@H](C)[C@@H](O)[C@H](N(CCCN)CCCN)[C@@H]2O)CC2O[C@](O)(C[C@@H](O)C[C@@H](O)[C@H](O)CC[C@@H](O)C[C@@H](O)CC(=O)O[C@H]1C)C[C@H](O)[C@H]2C(=O)N1CCN(C)CC1 [compound 12, 16-(N′-(1-Methylpiperazinyl)carboxamide)-N,N-di-(3-aminopropyl)-AmB]",0.2 µM,–,0.3,0.2,0.3,1,0.4,MIC ([7]; Candida albicans): 0.4 µM
